According to patent US20080260896A1 (priority 2007, published 2008):
Marks after values point to notes of the source that are not given here.

Experiments:
[1] = Crude glycerin as pellet binder: pellet mill current usage and pellet durability index (PDI); type: physicochemical
Source text: In this embodiment, the crude glycerin [FROM SHEET WHEN GET FROM NEIL] […] Two corn/soy diets, one with low fat and one with high fat, and two high fiber diets, one with low fat and one with high fat, were formulated to provide the four treatment groups. […] Table 1 references diet formulations tested. The “HFP” referred to in Table 1 refers to a High Fat Product available from Archer Daniels Midland Company, Decatur, Ill. […] [table]

[2] = Crude glycerin in finishing cattle diets: animal performance (weight, ADG, DMI, gain/feed); type: in vivo, Angus-cross steers; details: 10% DM glycerin
Method: All cattle were adapted on a common 4-step transition prior to initiation of the evaluation. Cattle were blocked by weight (4 blocks) with four pens per treatment (9-10 head/pen). […] Individual weights were collected at 28-day intervals throughout with steers terminated on three harvest dates (days on feed 116 to 153 days) based on weight and condition. Six monthly periods and cumulative (d 1-116 and 1-153) periods were analyzed.

[3] = Day 1-28, DDGS:Soy Hulls 10:0 diet (Treatment 2)
[4] = Day 1-28, DDGS:Soy Hulls 30:15 diet (Treatment 4)
[5] = Day 1-28, main effect over both diets
[6] = Day 1-116, DDGS:Soy Hulls 10:0 diet (Treatment 2)
[7] = Day 1-116, DDGS:Soy Hulls 30:15 diet (Treatment 4)
[8] = Day 1-116, main effect over both diets
[9] = Day 1-153, DDGS:Soy Hulls 10:0 diet (Treatment 2)
[10] = Day 1-153, DDGS:Soy Hulls 30:15 diet (Treatment 4)
[11] = Day 1-153, main effect over both diets
[12] = Day 29-56, DDGS:Soy Hulls 10:0 diet (Treatment 2)
[13] = Day 29-56, DDGS:Soy Hulls 30:15 diet (Treatment 4)
[14] = Day 29-56, main effect over both diets
[15] = Day 57-84, DDGS:Soy Hulls 10:0 diet (Treatment 2)
[16] = Day 57-84, DDGS:Soy Hulls 30:15 diet (Treatment 4)
[17] = Day 57-84, main effect over both diets

Question: Which results are given for OCC(O)CO [crude glycerin, glycerin]?
Answer: PDI ([1]; Corn/Soy High Fat diet, crude glycerin 2.5%): 54; PDI ([1]; Corn/Soy High Fat diet, crude glycerin 5.0%): 66; PDI ([1]; Corn/Soy Low Fat diet, crude glycerin 2.5%): 89; PDI ([1]; Corn/Soy Low Fat diet, crude glycerin 5.0%): 93; PDI ([1]; High Fiber High Fat diet, crude glycerin 2.5%): 89; PDI ([1]; High Fiber High Fat diet, crude glycerin 5.0%): 91; PDI ([1]; High Fiber Low Fat diet, crude glycerin 2.5%): 98; PDI ([1]; High Fiber Low Fat diet, crude glycerin 5.0%): 98; Average Daily Gain [2, 3]: 1.46^a kg/hd/d; Dry Matter Intake [2, 3]: 7.97^c kg/hd/d; Gain/Feed, ×100 [2, 3]: 18.27^a; Average Daily Gain [2, 4]: 1.31^ab kg/hd/d; Dry Matter Intake [2, 4]: 8.34^bc kg/hd/d; Gain/Feed, ×100 [2, 4]: 15.64^b; Average Daily Gain [2, 5]: 1.38 kg/hd/d; Dry Matter Intake [2, 5]: 8.16 kg/hd/d; Gain/Feed, ×100 [2, 5]: 16.96; Average Daily Gain [2, 6]: 1.30 kg/hd/d; Dry Matter Intake [2, 6]: 8.31^c kg/hd/d; Gain/Feed, ×100 [2, 6]: 15.66^a; Average Daily Gain [2, 7]: 1.27 kg/hd/d; Dry Matter Intake [2, 7]: 8.95^b kg/hd/d; Gain/Feed, ×100 [2, 7]: 14.28^b; Average Daily Gain [2, 8]: 1.29 kg/hd/d; Dry Matter Intake [2, 8]: 8.63 kg/hd/d; Gain/Feed, ×100 [2, 8]: 14.97; Average Daily Gain [2, 9]: 1.27^a kg/hd/d; Dry Matter Intake [2, 9]: 8.37^c kg/hd/d; Gain/Feed, ×100 [2, 9]: 15.21^a; Average Daily Gain [2, 10]: 1.21^ab kg/hd/d; Dry Matter Intake [2, 10]: 8.99^b kg/hd/d; Gain/Feed, ×100 [2, 10]: 13.43^b; Average Daily Gain [2, 11]: 1.24 kg/hd/d; Dry Matter Intake [2, 11]: 8.68 kg/hd/d; Gain/Feed, ×100 [2, 11]: 14.32; Weight ([2]; Day 28, DDGS:Soy Hulls 10:0 diet (Treatment 2)): 428.2^a kg; Weight ([2]; Day 28, DDGS:Soy Hulls 30:15 diet (Treatment 4)): 423.9^ab kg; Weight ([2]; Day 28, main effect over both diets): 426.1 kg; Average Daily Gain [2, 12]: 1.53 kg/hd/d; Dry Matter Intake [2, 12]: 8.78^c kg/hd/d; Gain/Feed, ×100 [2, 12]: 17.43^a; Average Daily Gain [2, 13]: 1.66 kg/hd/d; Dry Matter Intake [2, 13]: 9.95^b kg/hd/d; Gain/Feed, ×100 [2, 13]: 16.78^a; Average Daily Gain [2, 14]: 1.60 kg/hd/d; Dry Matter Intake [2, 14]: 9.36 kg/hd/d; Gain/Feed, ×100 [2, 14]: 17.10; Weight ([2]; Day 56, DDGS:Soy Hulls 10:0 diet (Treatment 2)): 471.2 kg; Weight ([2]; Day 56, DDGS:Soy Hulls 30:15 diet (Treatment 4)): 470.5 kg; Weight ([2]; Day 56, main effect over both diets): 470.9 kg; Average Daily Gain [2, 15]: 1.29 kg/hd/d; Dry Matter Intake [2, 15]: 8.84^b kg/hd/d; Gain/Feed, ×100 [2, 15]: 14.64; Average Daily Gain [2, 16]: 1.25 kg/hd/d; Dry Matter Intake [2, 16]: 9.37^b kg/hd/d; Gain/Feed, ×100 [2, 16]: 13.36; Average Daily Gain [2, 17]: 1.27 kg/hd/d; Dry Matter Intake [2, 17]: 9.11 kg/hd/d
